Numbered stars: 1 amine (or outer) side, 2 acyl side, 3 side chain; on linkers, the order of the positions; unused ones are H or OH. Square brackets hold non-standard residues; d marks the D form. Peptide text beside a SMILES is read from it. * marks the point of attachment. Trp(βS-Me,7-OMe) = COc1cccc2c([C@H](C)[C@H](N)C(=O)O)c[nH]c12; dPro(trans-4-NMe3+) = C[N+](C)(C)[C@@H]1CN[C@@H](C(=O)O)C1; Trp(1-CH2COOH) = N[C@@H](Cc1cn(CC(=O)O)c2ccccc12)C(=O)O; Phe(4-SO2NH2) = N[C@@H](Cc1ccc(S(N)(=O)=O)cc1)C(=O)O; Trp(7-CN) = N#Cc1cccc2c(C[C@H](N)C(=O)O)c[nH]c12; X27 = O=C(O)c1ccc(C[C@H](N[*:1])C(=O)[*:2])cc1F; Phe(3-CONH2) = NC(=O)c1cccc(C[C@H](N)C(=O)O)c1; Phe(4-CONH2) = NC(=O)c1ccc(C[C@H](N)C(=O)O)cc1; Phe(4-COOH) = N[C@@H](Cc1ccc(C(=O)O)cc1)C(=O)O; Trp(7-aza) = N[C@@H](Cc1c[nH]c2ncccc12)C(=O)O; Pip(5R-OH) = O=C(O)[C@@H]1CC[C@@H](O)CN1; X1 = O=C([C@@H]1CC[C@H](N[*:1])C1)[*:2]; Gly(Nα-CH2CH2CONH2) = NC(=O)CCNCC(=O)O; Pip(4-aza) = O=C(O)[C@@H]1CNCCN1; 4Pal = N[C@@H](Cc1ccncc1)C(=O)O; dHyp = O=C(O)[C@H]1C[C@H](O)CN1; Ahp(2) = CCCCC[C@H](N)C(=O)O; αMeS = C[C@](N)(CO)C(=O)O; Carboxymethyl = O=C(O)C*; Nle = CCCC[C@H](N)C(=O)O; Sar = CNCC(=O)O
Experiments:
[1] = target: T1, human soluble TNFR1 (sTNFR1) (Homo sapiens, UniProt P19438); test: Human sTNFR1-peptide displacement assay (LanthaScreen Eu TR-FRET binding assay)
T1 construct: made in house; host or cells: Sf21 (baculovirus)
T1 sequence (P19438 with tags, fused parts or gaps): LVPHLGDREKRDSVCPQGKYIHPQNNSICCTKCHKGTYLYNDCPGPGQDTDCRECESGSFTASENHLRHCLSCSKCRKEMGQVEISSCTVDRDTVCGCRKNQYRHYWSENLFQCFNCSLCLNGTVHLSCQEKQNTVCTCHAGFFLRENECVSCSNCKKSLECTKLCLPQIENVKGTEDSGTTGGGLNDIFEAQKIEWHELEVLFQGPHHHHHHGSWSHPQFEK
In short: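 Readout is the 665/615 nm TR-FRET ratio (Eu anti-His donor, streptavidin-Alexa647 acceptor), normalized to DMSO and saturating displacer, fit by Morrison-based five-parameter logistic for Kd^app. His-tagged sTNFR1 (1-211) prebound to 100 nM biotinylated peptide SEQ ID NO.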

[2] = target: T2, human TNFR1 extracellular domain (ECD) protein (Homo sapiens, UniProt P19438); test: SPR binding affinity to captured human TNFR1 ECD
T2 construct: HRV 3C protease cleavage site (C); 6His (C, cleaved yes); made in house; host or cells: Sf21 insect cells (baculovirus), secreted
T2 sequence (P19438 30-211): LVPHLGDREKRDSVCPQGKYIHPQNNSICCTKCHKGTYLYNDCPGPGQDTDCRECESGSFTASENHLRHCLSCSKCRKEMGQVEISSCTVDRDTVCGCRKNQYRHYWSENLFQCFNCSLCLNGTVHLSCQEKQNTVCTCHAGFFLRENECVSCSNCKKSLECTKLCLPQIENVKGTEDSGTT
In short: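 SPR kinetics: peptides over captured avi-biotinylated receptor ECDs, TNFR1 for affinity, TNFR2 run in parallel for off-target binding. Running buffer HEPES pH 7.4 with 150 mM NaCl, 3 mM EDTA, 0.05% P20, 2% DMSO; surface regenerated between analytes. Affinity derived from kon/koff.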

Compound	Kd [1] [nM]	Kd [2] [nM]
CCCC[C@@H]1NC(=O)[C@@H]2CC[C@@H](C2)NC(=O)[C@H]([C@@H](C)c2c[nH]c3c(OC)cccc23)NC(=O)CN(C)C(=O)[C@H](Cc2ccc(C(=O)O)cc2)NC(=O)[C@H](Cc2ccc(S(N)(=O)=O)cc2)NC(=O)[C@](C)(CO)NC(=O)[C@H](Cc2c[nH]c3c(C#N)cccc23)NC(=O)[C@H](Cc2ccc(C(=O)O)cc2)NC(=O)[C@H](CC(N)=O)NC(=O)[C@H]2C[C@H](OCC(=O)O)CN2C(=O)[C@H](Cc2c[nH]c3ncccc23)NC(=O)[C@@H]2CC[C@@H](O)CN2C(=O)[C@H](Cc2ccncc2)NC1=O [SEQ ID NO. 4] (cyclo([4Pal][Pip(5R-OH)][Trp(7-aza)][dHyp](Carboxymethyl)N[Phe(4-COOH)][Trp(7-CN)][αMeS][Phe(4-SO2NH2)][Phe(4-COOH)][Sar][Trp(βS-Me,7-OMe)][X1][Nle]))	0.09	0.1
CCCC[C@@H]1NC(=O)[C@@H]2CC[C@@H](C2)NC(=O)[C@H]([C@@H](C)c2c[nH]c3c(OC)cccc23)NC(=O)CN(C)C(=O)[C@H](Cc2ccc(C(=O)O)cc2)NC(=O)[C@H](Cc2ccc(C(N)=O)cc2)NC(=O)[C@](C)(CO)NC(=O)[C@H](Cc2c[nH]c3c(C#N)cccc23)NC(=O)[C@H](Cc2ccc(C(=O)O)c(F)c2)NC(=O)[C@H](CC(N)=O)NC(=O)[C@H]2C[C@H](O)CN2C(=O)[C@H](Cc2c[nH]c3ncccc23)NC(=O)[C@@H]2CC[C@@H](O)CN2C(=O)[C@H](Cc2ccncc2)NC1=O [SEQ ID NO. 8] (cyclo([4Pal][Pip(5R-OH)][Trp(7-aza)][dHyp]N[X27][Trp(7-CN)][αMeS][Phe(4-CONH2)][Phe(4-COOH)][Sar][Trp(βS-Me,7-OMe)][X1][Nle]))	0.1	0.08
CCCC[C@@H]1NC(=O)[C@@H]2CC[C@@H](C2)NC(=O)[C@H]([C@@H](C)c2c[nH]c3c(OC)cccc23)NC(=O)CN(C)C(=O)[C@H](Cc2ccc(C(N)=O)cc2)NC(=O)[C@H](Cc2ccc(S(N)(=O)=O)cc2)NC(=O)[C@](C)(CO)NC(=O)[C@H](Cc2c[nH]c3c(C#N)cccc23)NC(=O)[C@H](Cc2ccc(C(=O)O)cc2)NC(=O)[C@H](CC(N)=O)NC(=O)[C@H]2C[C@H]([N+](C)(C)C)CN2C(=O)[C@H](Cc2cn(CC(=O)O)c3ccccc23)NC(=O)[C@@H]2CC[C@@H](O)CN2C(=O)[C@H](Cc2ccncc2)NC1=O [SEQ ID NO. 9] (cyclo([4Pal][Pip(5R-OH)][Trp(1-CH2COOH)][dPro(trans-4-NMe3+)]N[Phe(4-COOH)][Trp(7-CN)][αMeS][Phe(4-SO2NH2)][Phe(4-CONH2)][Sar][Trp(βS-Me,7-OMe)][X1][Nle]))	0.05	0.1
CCCCC[C@@H]1NC(=O)[C@@H]2CC[C@@H](C2)NC(=O)[C@H]([C@@H](C)c2c[nH]c3c(OC)cccc23)NC(=O)CN(C)C(=O)[C@H](Cc2cccc(C(N)=O)c2)NC(=O)[C@H](Cc2ccc(C(N)=O)cc2)NC(=O)[C@](C)(CO)NC(=O)[C@H](Cc2c[nH]c3c(C#N)cccc23)NC(=O)[C@H](Cc2ccc(C(=O)O)cc2)NC(=O)[C@H](CC(N)=O)NC(=O)CN(CCC(N)=O)C(=O)[C@H](Cc2c[nH]c3ccccc23)NC(=O)[C@@H]2CNCCN2C(=O)[C@H](Cc2ccncc2)NC1=O [SEQ ID NO. 10] (cyclo([4Pal][Pip(4-aza)]W[Gly(Nα-CH2CH2CONH2)]N[Phe(4-COOH)][Trp(7-CN)][αMeS][Phe(4-CONH2)][Phe(3-CONH2)][Sar][Trp(βS-Me,7-OMe)][X1][Ahp(2)]))	0.1	0.08
CCCC[C@@H]1NC(=O)[C@@H]2CC[C@@H](C2)NC(=O)[C@H]([C@@H](C)c2c[nH]c3c(OC)cccc23)NC(=O)CN(C)C(=O)[C@H](Cc2ccc(C(N)=O)cc2)NC(=O)[C@H](Cc2ccc(C(N)=O)cc2)NC(=O)[C@](C)(CO)NC(=O)[C@H](Cc2c[nH]c3c(C#N)cccc23)NC(=O)[C@H](Cc2ccc(C(=O)O)cc2)NC(=O)[C@H](CC(N)=O)NC(=O)[C@H]2C[C@H](OC)CN2C(=O)[C@H](Cc2c[nH]c3ccccc23)NC(=O)[C@@H]2CC[C@@H](O)CN2C(=O)[C@H](Cc2ccncc2)NC1=O [SEQ ID NO. 14] (cyclo([4Pal][Pip(5R-OH)]W[dHyp](Me)N[Phe(4-COOH)][Trp(7-CN)][αMeS][Phe(4-CONH2)][Phe(4-CONH2)][Sar][Trp(βS-Me,7-OMe)][X1][Nle]))	0.03	0.02
